PMC11672637, “7-O-Carboxylic Acid-Substituted 3-O-Alkyl Difluoroquercetin; An Aztreonam-Potentiating Agent Against Carbapenemase-Producing Pseudomonas aeruginosa Through Simultaneous Inhibition of Metallo-β-Lactamase and Efflux Pump” (Antibiotics, 2024)

Tests used:
Test in all cases: MIC / checkerboard with ATM
Parameters in all cases: key to Susceptibility category: S: susceptible; I: intermediate; R: resistant
PA-038, blaNDM = format: cell-based, P. aeruginosa; settings: PA-038; Table S2
PA-041, blaNDM = format: cell-based, P. aeruginosa; settings: PA-041, Table S2
PA-009, blaGES = format: cell-based, P. aeruginosa; settings: PA-009, Table S2
PA-027, blaIMP = format: cell-based, P. aeruginosa; settings: PA-027; Table S2
PA-016, blaIMP = format: cell-based, P. aeruginosa; settings: PA-016; Table S2
PA-033, blaNDM = format: cell-based, P. aeruginosa; settings: PA-033; Table S2
PA-029, blaIMP = format: cell-based, P. aeruginosa; settings: PA-029; Table S2
[1] = system: NDM-1-Producing P. aeruginosa (PA-017, blaNDM); format: cell-based; settings: PA-017; Table S2
PA-034, blaNDM = format: cell-based, P. aeruginosa; settings: PA-034; Table S2
PA-032, blaIMP = format: cell-based, P. aeruginosa; settings: PA-032, Table S2
PA-037, blaIMP/NDM = format: cell-based, P. aeruginosa; settings: PA-037; Table S2
PA-026, blaNDM = format: cell-based, P. aeruginosa; settings: PA-026, Table S2; for MIC: Pseudomonas aeruginosa, read-out: MIC value
PA-030, blaIMP = format: cell-based, P. aeruginosa; settings: PA-030; Table S2
PA-039, blaNDM = format: cell-based, P. aeruginosa; settings: PA-039, Table S2; for MIC: Pseudomonas aeruginosa, read-out: MIC value
PA-040, blaNDM = format: cell-based, P. aeruginosa; settings: PA-040; Table S2
PA-021, blaIMP = format: cell-based, P. aeruginosa; settings: PA-021, Table S2
PA-003, blaVIM = format: cell-based, P. aeruginosa; settings: PA-003, Table S2; for MIC: Pseudomonas aeruginosa, read-out: MIC value
PA-042, blaIMP/NDM = format: cell-based, P. aeruginosa; settings: PA-042, Table S2; for MIC: Pseudomonas aeruginosa, read-out: MIC value
PA-036, blaNDM = format: cell-based, P. aeruginosa; settings: PA-036; Table S2
PA-014, blaGES = format: cell-based, P. aeruginosa; settings: PA-014, Table S2
PA-044, blaNDM = format: cell-based, P. aeruginosa; settings: PA-044; Table S2
PA-031, blaNDM = format: cell-based, P. aeruginosa; settings: PA-031; Table S2
PA-035, blaGES = format: cell-based, P. aeruginosa; settings: PA-035, Table S2; for MIC: Pseudomonas aeruginosa, read-out: MIC value
PA-025, blaNDM = format: cell-based, P. aeruginosa; settings: PA-025; Table S2
PA-002, blaIMP = format: cell-based, P. aeruginosa; settings: PA-002, Table S2; for MIC: Pseudomonas aeruginosa, read-out: MIC value
PA-028, blaNDM = format: cell-based, P. aeruginosa; settings: PA-028; Table S2
[2] = Pseudomonas aeruginosa, read-out: MIC value

SMILES | Susceptibility category (PA-038, blaNDM) | Susceptibility category (PA-041, blaNDM) | Susceptibility category (PA-009, blaGES) | Susceptibility category (PA-027, blaIMP) | Susceptibility category (PA-016, blaIMP) | Susceptibility category (PA-033, blaNDM) | Susceptibility category (PA-029, blaIMP) | Susceptibility category [1] | Susceptibility category (PA-034, blaNDM) | Susceptibility category (PA-032, blaIMP) | Susceptibility category (PA-037, blaIMP/NDM) | Susceptibility category (PA-026, blaNDM) | Susceptibility category (PA-030, blaIMP) | Susceptibility category (PA-039, blaNDM) | Susceptibility category (PA-040, blaNDM) | Susceptibility category (PA-021, blaIMP) | Susceptibility category (PA-003, blaVIM) | Susceptibility category (PA-042, blaIMP/NDM) | Susceptibility category (PA-036, blaNDM) | Susceptibility category (PA-014, blaGES) | further results
NCC[C@H](O)C(=O)N[C@@H]1C[C@H](N)[C@@H](O[C@H]2O[C@H](CN)[C@@H](O)[C@H](O)[C@H]2O)[C@H](O)[C@H]1O[C@H]1O[C@H](CO)[C@@H](O)[C@H](N)[C@H]1O [AMK, amikacin, reference compound] | R | R | S | R | R | R | R | R | R | S | R | S | R | S | R | S | R | R | R | S | MIC (PA-009, blaGES; [2]): 16 µg/mL; MIC (PA-039, blaNDM): ≤ 4 µg/mL; MIC (PA-021, blaIMP; [2]): 16 µg/mL; MIC (PA-014, blaGES; [2]): 8 µg/mL; Susceptibility category (PA-044, blaNDM): R; Susceptibility category (PA-031, blaNDM): R; Susceptibility category (PA-035, blaGES): S; MIC (PA-035, blaGES): ≤ 4 µg/mL; Susceptibility category (PA-025, blaNDM): R; Susceptibility category (PA-002, blaIMP): R; Susceptibility category (PA-028, blaNDM): R
C[C@@H](O)[C@H]1C(=O)N2C(C(=O)O)=C(SCCN=CN)C[C@H]12 [IPM, imipenem, reference compound] | R | R | R | R | R | R | R | R | R | R | R | I | R | R | R | R | R | R | R | R | MIC (PA-026, blaNDM): 4 µg/mL; MIC (PA-003, blaVIM): > 8 µg/mL; MIC (PA-042, blaIMP/NDM): > 8 µg/mL; Susceptibility category (PA-044, blaNDM): R; Susceptibility category (PA-031, blaNDM): R; Susceptibility category (PA-035, blaGES): R; MIC (PA-035, blaGES): 8 µg/mL; Susceptibility category (PA-025, blaNDM): R; Susceptibility category (PA-002, blaIMP): R; MIC (PA-002, blaIMP): > 8 µg/mL; Susceptibility category (PA-028, blaNDM): R
CC(C)(O/N=C(\C(=O)N[C@@H]1C(=O)N2C(C(=O)[O-])=C(C[n+]3ccccc3)CS[C@H]12)c1csc(N)n1)C(=O)O [CAZ, ceftazidime, reference compound] | R | R | R | R | R | R | R | R | R | S | R | R | R | R | R | R | S | R | R | R | MIC (PA-032, blaIMP; [2]): 8 µg/mL; MIC (PA-003, blaVIM): 4 µg/mL; MIC (PA-042, blaIMP/NDM): > 16 µg/mL; Susceptibility category (PA-044, blaNDM): R; Susceptibility category (PA-031, blaNDM): R; Susceptibility category (PA-035, blaGES): R; MIC (PA-035, blaGES): > 16 µg/mL; Susceptibility category (PA-025, blaNDM): R; Susceptibility category (PA-002, blaIMP): R; MIC (PA-002, blaIMP): > 16 µg/mL; Susceptibility category (PA-028, blaNDM): R
CO/N=C(\C(=O)N[C@@H]1C(=O)N2C(C(=O)[O-])=C(C[N+]3(C)CCCC3)CS[C@H]12)c1csc(N)n1 [FEP, cefepime, reference compound] | R | R | R | R | R | R | R | R | R | R | R | S | R | R | R | R | R | R | R | R | MIC (PA-026, blaNDM): 8 µg/mL; MIC (PA-003, blaVIM): > 16 µg/mL; MIC (PA-042, blaIMP/NDM): > 16 µg/mL; Susceptibility category (PA-044, blaNDM): R; Susceptibility category (PA-031, blaNDM): R; Susceptibility category (PA-035, blaGES): S; MIC (PA-035, blaGES): 4 µg/mL; Susceptibility category (PA-025, blaNDM): R; Susceptibility category (PA-002, blaIMP): R; MIC (PA-002, blaIMP): > 16 µg/mL; Susceptibility category (PA-028, blaNDM): R
CNC(C)C1CCC(N)C(OC2C(N)CC(N)C(OC3OCC(C)(O)C(NC)C3O)C2O)O1 (centres unmarked) [GEN, gentamicin, reference compound] | R | S | I | R | R | R | R | R | R | S | R | S | R | S | R | R | R | R | R | R | MIC (PA-041, blaNDM; [2]): ≤ 2 µg/mL; MIC (PA-026, blaNDM): ≤ 2 µg/mL; MIC (PA-039, blaNDM): ≤ 2 µg/mL; MIC (PA-003, blaVIM): > 8 µg/mL; Susceptibility category (PA-044, blaNDM): R; Susceptibility category (PA-031, blaNDM): R; Susceptibility category (PA-035, blaGES): R; Susceptibility category (PA-025, blaNDM): R; Susceptibility category (PA-002, blaIMP): R; MIC (PA-002, blaIMP): > 8 µg/mL; Susceptibility category (PA-028, blaNDM): R
